The term cell viability denotes a per cent measure of how many cells are alive, often set against a control.

Data set [1] in a line: Evaluation of light stability (fluorescence intensity over time under UV excitation). Format: physicochemical. As to conditions: 3000 seconds after excitation by UV irradiation; toluene; 5 μM; excitation 378 nm; detection 483 nm. As for the experimental part:
The light stability of the compound A obtained in Example 1 was evaluated.
The light stability of the compound A and that of a commercially available solvatochromic dye Laurdan were compared (solvent: toluene; each dye concentration: 5 μM; excitation wavelength: 378 nm; detection wavelength: 483 nm). Laurdan is a compound with a CAS number of 74515-25-6. The fluorescence spectrum measurement was carried out using the same instrument as that used in Example 2.

Data set [2] deals with human keratinocyte K16 (P4). Briefly: Toxicity evaluation (MTT test). Format: cell-based. As to conditions: 100 μM, 24 hours. As for the experimental part: The toxicity of fluorescence imaging of cells using the compound A obtained in Example 1 was evaluated. More specifically, the toxicity evaluation (MTT test) of the compound A to human keratinocyte K16 (P4) was performed. As a toxicity evaluation procedure, first, a medium containing the compound A at a maximum concentration of 100 μM (maximum DMSO concentration=0.5% v/v) was added to cells to prepare a 2-fold dilution series. After 24 hours, the medium was discarded and an MTT reagent ([…]) was added. After 3 hours, a 10% SDS reagent was added to the cells, and the absorbance at 570 nm was measured the next day.
On the technique in general: Tetrazolium assays rely on reduction of a dye to a coloured formazan, in cell work by metabolically active cells.

A short description of data set [3]: Photophysical properties (absorption spectrum, fluorescence spectrum, fluorescence quantum yield) in organic solvents. The data set is classed as physicochemical. The following applies: 5 μM. How it is done:
The absorption spectrum and fluorescence spectrum in organic solvents of the compound A obtained in Example 1 were measured.
The absorption spectrum and the fluorescence spectrum were measured using a UV-Visible/NIR spectrophotometer (V-670 manufactured by JASCO Corporation) and a spectrofluorometer (FP6600 manufactured by JASCO Corporation), respectively. The fluorescence quantum yield was measured using an absolute PL quantum yield spectrometer (Hamamatsu Photonics K.K.: C 9920-02V). The concentration of the compound A was 5 μM for each solvent. For solvent species, toluene, dichloromethane, DMSO, and ethanol were used.
The absorption spectrum and fluorescence spectrum in organic solvents of the compound B obtained in Example 8 were measured.
The absorption spectrum and the fluorescence spectrum were measured using a UV-Visible/NIR spectrophotometer (V-670 manufactured by JASCO Corporation) and a spectrofluorometer (FP6600 manufactured by JASCO Corporation), respectively, in the same manner as in Example 2. The fluorescence quantum yield was measured using an absolute PL quantum yield spectrometer (Hamamatsu Photonics K.K.: C 9920-02V). The concentration of the compound B was 5 μM for each solvent. For solvent species, toluene, dichloromethane, DMSO, and ethanol were used.
The absorption spectrum and fluorescence spectrum in organic solvents of the compound C obtained in Example 10 were measured.
The absorption spectrum and the fluorescence spectrum were measured using a UV-Visible/NIR spectrophotometer (V-670 manufactured by JASCO Corporation) and a spectrofluorometer (FP6600 manufactured by JASCO Corporation), respectively, in the same manner as in Example 2. The fluorescence quantum yield was measured using an absolute PL quantum yield spectrometer (Hamamatsu Photonics K.K.: C 9920-02V). The concentration of the compound C was 5 μM for each solvent. For solvent species, toluene, dichloromethane, DMSO, and ethanol were used.

Data set [4] in a line: Fluorescence spectrum measurement in lipid membrane (liposome). Format: physicochemical. As to conditions: compound 2 μM, lipid 200 μM. As for the experimental part:
The fluorescence spectrum of the compound A obtained in Example 1 in a lipid membrane (liposome) was measured. More specifically, the fluorescence spectrum of the compound A in a liposome composed of 1,2-dioleoyl-sn-glycero-3-phosphocholine (DOPC) and sphingomyelin (SM)/cholesterol (Chol) was measured (compound A concentration: 2 μM, lipid concentration: 200 μM). The fluorescence spectrum measurement was carried out using the same instrument as that used in Example 2.

Data set [5] relates to human prostate cancer cells (PC3). The experiment in a line: Confocal fluorescence imaging of stained cells. Format: cell-based. The following applies: 500 nM, 30 minutes at room temperature; excitation 405 nm; green (490-590 nm) and red (655-755 nm) channels. As for the experimental part:
Fluorescence imaging of cells was performed using the compound A obtained in Example 1. More specifically, confocal fluorescence imaging of human prostate cancer cells (PC3) stained with the compound A of the Example was performed (compound A concentration: 500 nM; excitation wavelength: 405 nm).
For microscopic observation, a confocal scanning laser microscope (manufactured by Olympus Corporation, FV1000-D) was used. In the measurement, fluorescence was detected in a green (490-590 nm) channel and a red (655-755 nm) channel using a 405 nm laser light source.
As the human prostate cancer cells used for the observation, cultured cells were used. The compound A (500 nM) was added to the cultured cells, and the mixture was allowed to stand at room temperature for 30 minutes, and then imaging was performed.

Data set [6] concerns human skin tissue (frozen tissue). The experiment in a line: Two-photon fluorescence imaging of stained human skin tissue. The following applies: 10 μM; excitation 960 nm; in combination with clearing reagent (LUCID). How it is done: Human skin tissue (frozen tissue) imaging was performed using the compound A obtained in Example 1. More specifically, two-photon fluorescence imaging of human skin tissues (frozen tissues) stained with the compound A of the Example was performed (compound A concentration: 10 μM, excitation wavelength: 960 nm; a clearing reagent (LUCID) was used in combination.).
For microscopy, a two-photon microscope A1R MP+(NIKON) was used. In the measurement, 960 nm was used as a laser light source for excitation for the compound A. Scanning was performed to a depth of 100 μm of the sample. The three-dimensional reconstructed image is obtained by processing the obtained data with attached software.
Human skin tissues were embedded in paraffin and then cut out to prepare tissue sections. The preparation of the sections (thickness: 5 μm) was performed by the procedure usually performed in histopathological examination. For staining with the compound A dye, deparaffinization was performed by a conventional method, and then staining was performed by immersion in the aforementioned dye at room temperature for several days to one week. In practice, the tissues were sufficiently stained by immersion in the dye at room temperature for 2 to 3 days.

Regarding `CCCCCCCCCCCC(=O)c1ccc2cc(N(C)C)ccc2c1` [Laurdan, reference compound], the “Fluorescence intensity (light stability)” value in data set [1] was not above 0.6.

On to `CCCC(=O)/C=C/c1ccc2ccc3c(N4CCCCC4)ccc4ccc1c2c43` [compound A], for which the cell viability in data set [2] was 93.9%. Moreover, the “Fluorescence intensity (light stability)” value in data set [1] was “the fluorescence intensity was maintained as it was”. Further, the Fluorescence quantum yield amounted to 86% in data set [3] (DCM); 79% in data set [3] (DMSO); 20% in data set [3] (EtOH); 82% in data set [3] (Toluene); 37% in data set [4] (DOPC liposome); 72% in data set [4] (SM/Chol liposome). The Maximum absorption wavelength in data set [3] (DCM) stood at 427 nm; in data set [3] (DMSO), 429 nm; in data set [3] (EtOH), 427 nm; in data set [3] (Toluene) it was 424 nm. The Maximum fluorescence wavelength was found to be 615 nm in data set [3] (DCM); 647 nm in data set [3] (DMSO); 691 nm in data set [3] (EtOH); 546 nm in data set [3] (Toluene); 603 nm in data set [4] (DOPC liposome); 577 nm in data set [4] (SM/Chol liposome). In data set [3] (toluene, dichloromethane, DMSO, ethanol), the Fluorescence solvatochromism entry is “fluorescence solvatochromism sensitive to solvent polarity was observed”. In addition, the “Fluorescence in cell membrane (plasma membrane) and oil droplets (lipid droplet)” value in data set [5] was “strong fluorescence was observed in the green channel”. Further, in data set [6], the “Staining of human skin tissue” value is “capable of strongly staining the membrane of each cell constituting the human skin tissue”.

Values taken from patent US20240218242A1, “COMPOUND, FLUORESCENT DYE, KIT, AND METHOD FOR DETECTING CELLS” (NATIONAL UNIVERSITY CORPORATION KOCHI UNIVERSITY, priority 2021, published 2024).
